Test results from US12162867B2, “Inhibitors of RNA helicase DHX9 and uses thereof” (ACCENT THERAPEUTICS, INC., priority 2022, dated 2024).
Read-outs that look alike come from different tables or passages of the source.

Assays:
Type in all cases: cell-based
[1] = test system: LS411N cells; assay: DHX9 cellular proliferation assay (CellTiter-Glo), LS411N (CRC-MSI); conditions: Homo sapiens, LS-411N, LS411N, performed at Pharmaron, read-out: LS411N (CRC-MSI-H) Antiproliferative IC50
[2] = test system: NCI-H747 cells; assay: DHX9 cellular proliferation assay (CellTiter-Glo), NCI-H747 (CRC-MSS); conditions: Homo sapiens, performed at Pharmaron, read-out: H747 (CRC-MSS) Antiproliferative IC50
[3] = test system: circBRIP1 in HCT116 cells; assay: DHX9 circBRIP1 cellular target engagement TaqMan Multiplex assay (qPCR); conditions: Homo sapiens, read-out: DHX9 Cellular Target Engagement EC50
[4] = HCT-116, 72 h, circBRIP1, HCT116 cells, 72 hours, Taqman assay (marked *)
[5] = HCT-116, circBRIP1, HCT116 cells, * Taqman assay was used

SMILES	IC50 ([1]; CRC-MSI-H) [nM]	IC50 ([2]; NCI-H747, NCI-H747, CRC-MSS) [nM]	EC50 [3, 4] [nM]	IC50 [1] [nM]	IC50 ([2]; NCI-H747, NCI-H747) [nM]	EC50 [3, 5] [nM]
Cc1sc(C(=O)Nc2cc(Cl)cc(NS(C)(=O)=O)c2)cc1-c1ccc(C#N)cn1 [Example 377]	140	> 10000	37.4	–	–	–
CC(C)(C)Oc1cnc(-c2csc(C(=O)Nc3cc(Cl)cc(NS(C)(=O)=O)c3)c2)nc1 [Example 379]	83	4710	56.6	–	–	–
Cc1sc(C(=O)Nc2cc(Cl)cc(NS(C)(=O)=O)c2)cc1-c1ccc(OC(C)(C)C)cn1 [Example 380]	54.1	3620	25.1	–	–	–
Cc1sc(C(=O)Nc2cc(Cl)cc(NS(C)(=O)=O)c2)cc1-c1ncc(OC(C)(C)C)cc1F [Example 381]	347	965	183	–	–	–
Cn1cc(C(=O)Nc2cc(Cl)cc(NS(C)(=O)=O)c2)cc1-c1ccc(N2CCCC2)cn1 [Example 402]	–	–	–	167	7050	68.6
CCS(=O)(=O)Nc1cc(Cl)cc(NC(=O)c2cc(-c3ccc(N4CC(F)(F)C4)cn3)n(C)c2)c1 [Example 403]	–	–	–	230	7410	100
COC1CN(c2cnc(-n3cc(C(=O)Nc4cc(Cl)cc(NS(C)(=O)=O)c4)cc3C)nc2)C1 [Example 404]	–	–	–	138	> 10000	35.6
Cc1cc(C(=O)Nc2cc(Cl)cc(NS(C)(=O)=O)c2)cn1-c1ccc(N2CC3COCC3C2)cn1 (stereo not drawn) [Example 405]	–	–	–	116	> 10000	26.1
Cc1cc(C(=O)Nc2cc(Cl)cc(NS(C)(=O)=O)c2)cn1-c1ncc(N2CC3(C2)CC(F)(F)C3)cn1 [Example 413]	–	–	–	138	2170	42.1
Cc1cc(C(=O)Nc2cc(Cl)cc(NS(C)(=O)=O)c2)cn1-c1ncc(N2CC(F)(F)C2)cc1C#N [Example 415]	–	–	–	502	7150	68.9
Cc1cc(C(=O)Nc2cc(Cl)cc(NS(C)(=O)=O)c2)cn1-c1ncc(N2CC(F)(F)C2)cc1F [Example 420]	–	–	–	353	3870	50.6
COc1cc(N2CC(F)(F)C2)cnc1-n1cc(C(=O)Nc2cc(Cl)cc(NS(C)(=O)=O)c2)cc1C [Example 421]	–	–	–	114	> 10000	19.4
CCS(=O)(=O)Nc1cc(Cl)cc(NC(=O)c2cc(C)n(-c3ncc(N4CC(F)(F)C4)cn3)c2)c1 [Example 423]	–	–	–	269	8030	51.2
Cc1sc(C(=O)Nc2cc(Cl)cc(NS(C)(=O)=O)c2)cc1-c1ncc(OC2CCC2)cn1 [Example 452]	–	–	–	223	> 10000	65.3
CCOc1cnc(-c2cc(C(=O)Nc3cc(Cl)cc(NS(C)(=O)=O)c3)cn2C)c(F)c1 [Example 453]	–	–	–	218	6550	54.6
COc1cnc(-c2cc(C(=O)Nc3cc(Cl)cc(NS(C)(=O)=O)c3)cn2C)c(F)c1 [Example 454]	–	–	–	218	5810	18.2
CCOc1cnc(-c2cc(C(=O)Nc3cc(Cl)cc(NS(C)(=O)=O)c3)sc2C)c(F)c1 [Example 456]	–	–	–	209	1940	32.8
CC(C)Oc1cnc(-c2csc(C(=O)Nc3cc(Cl)cc(NS(C)(=O)=O)c3)c2)nc1 [Example 457]	–	–	–	76.1	4800	85.3
CC(C)Oc1ccc(-c2csc(C(=O)Nc3cc(Cl)cc(NS(C)(=O)=O)c3)c2)nc1 [Example 459]	–	–	–	93.7	2660	58.2
COc1cc(N2CC(F)(F)C2)cnc1-c1cc(C(=O)Nc2cc(Cl)cc(NS(C)(=O)=O)c2)cn1C [Example 462]	–	–	–	257	> 10000	25.7
CCS(=O)(=O)Nc1cc(Cl)cc(NC(=O)c2cc(-c3ncc(N4CC(F)(F)C4)cn3)c(C)s2)c1 [Example 463]	–	–	–	59.3	> 10000	18
COC(=O)N1CCN(c2cnc(-c3cc(C(=O)Nc4cc(Cl)cc(NS(C)(=O)=O)c4)cn3C)c(F)c2)CC1 [Example 464]	–	–	–	247	> 10000	17.2
COC1CN(c2ccc(-c3cc(C(=O)Nc4cc(Cl)cc(NS(C)(=O)=O)c4)cn3C)nc2)C1 [Example 465]	–	–	–	115	> 10000	35.2
Cn1cc(C(=O)Nc2cc(Cl)cc(NS(C)(=O)=O)c2)cc1-c1ncc(N2CC(F)C2)cc1F [Example 466]	–	–	–	350	4850	52.4
Cn1cc(C(=O)Nc2cc(Cl)cc(NS(C)(=O)=O)c2)cc1-c1ncc(N2CCC(F)(F)CC2)cc1F [Example 469]	–	–	–	522	3790	83.8

SMILES	IC50 ([1]; CRC-MSI-H) [nM]	IC50 ([2]; NCI-H747, NCI-H747, CRC-MSS) [nM]	EC50 [3, 4] [nM]	IC50 [1] [nM]	IC50 ([2]; NCI-H747, NCI-H747) [nM]	EC50 [3, 5] [nM]
Cc1sc(C(=O)Nc2cc(Cl)cc(NS(C)(=O)=O)c2)cc1-c1ncc(N2CCC(F)(F)CC2)cc1F [Example 471]	–	–	–	72.5	8870	27.5
Cc1sc(C(=O)Nc2cc(Cl)cc(NS(C)(=O)=O)c2)cc1-c1ncc(N2CCC3(CC2)COC3)cc1F [Example 474]	–	–	–	87.2	6630	13.5
Cn1cc(C(=O)Nc2cc(Cl)cc(NS(C)(=O)=O)c2)cc1-c1ncc(N2CCC3(CC2)COC3)cc1F [Example 475]	–	–	–	81.2	8770	31.5
Cc1sc(C(=O)Nc2cc(Cl)cc(NS(C)(=O)=O)c2)cc1-c1ncc(N2CC3C(C2)C3(C)C)cc1F (stereo not drawn) [Example 476]	–	–	–	140	4140	108
Cc1sc(C(=O)Nc2cc(Cl)cc(NS(C)(=O)=O)c2)cc1-c1ncc(N2CCC3(CC2)CC3(F)F)cc1F [Example 478]	–	–	–	259	4840	102
Cc1sc(C(=O)Nc2cc(Cl)cc(NS(C)(=O)=O)c2)cc1-c1ncc(N2CCC(F)(F)C2)cn1 [Example 479]	–	–	–	37.4	7410	16.9
Cc1sc(C(=O)Nc2cc(Cl)cc(NS(C)(=O)=O)c2)cc1-c1ncc(N2CCC3(C2)CC3(F)F)cc1F (stereo not drawn) [Example 480]	–	–	–	150	> 10000	55.8
Cc1sc(C(=O)Nc2cc(Cl)cc(NS(C)(=O)=O)c2)cc1-c1ncc(N2CCCC(F)(F)C2)cc1F [Example 482]	–	–	–	66.8	1140	35.6
Cn1cc(C(=O)Nc2cc(Cl)cc(NS(C)(=O)=O)c2)cc1-c1ncc(N2CCCC(F)(F)C2)cc1F [Example 483]	–	–	–	101	1710	61
Cc1sc(C(=O)Nc2cc(Cl)cc(NS(C)(=O)=O)c2)cc1-c1ncc(N2CCC(F)(F)C2)cc1F [Example 484]	–	–	–	66.2	2600	31.8
Cc1sc(C(=O)Nc2cc(Cl)cc(NS(C)(=O)=O)c2)cc1-c1ccc(N2CCC(F)(F)C2)cn1 [Example 485]	–	–	–	58.3	2060	12.4
CS(=O)(=O)Nc1cc(Cl)cc(NC(=O)c2cc(-c3ncc(N4CC(F)(F)C4)cn3)cs2)c1 [Example 486]	–	–	–	112	1990	31.1
Cc1sc(C(=O)Nc2cc(Cl)cc(NS(C)(=O)=O)c2)cc1-c1ncc(N2CC(C(F)(F)F)C2)cn1 [Example 489]	–	–	–	51	2060	22.5
Cn1cc(C(=O)Nc2cc(Cl)cc(NS(C)(=O)=O)c2)cc1-c1ncc(N2CC3(C2)CC(F)(F)C3)cn1 [Example 492]	–	–	–	209	> 10000	44.4
Cn1cc(C(=O)Nc2cc(Cl)cc(NS(C)(=O)=O)c2)cc1-c1ncc(N2CC(C(F)(F)F)C2)cn1 [Example 493]	–	–	–	131	> 10000	22
Cn1cc(C(=O)Nc2cc(Cl)cc(NS(C)(=O)=O)c2)cc1-c1ncc(N2CCC3(C2)CC3(F)F)cn1 (stereo not drawn) [Example 494]	–	–	–	129	> 10000	42.9
Cc1sc(C(=O)Nc2cc(Cl)cc(NS(C)(=O)=O)c2)cc1-c1ccc(N2CC(C(F)(F)F)C2)cn1 [Example 496]	–	–	–	48.2	2020	23.3
Cn1cc(C(=O)Nc2cc(Cl)cc(NS(C)(=O)=O)c2)cc1-c1ccc(N2CC(C(F)(F)F)C2)cn1 [Example 497]	–	–	–	169	2490	43.7
Cc1sc(C(=O)Nc2cc(Cl)cc(NS(C)(=O)=O)c2)cc1-c1ccc(N2CC3(C2)CC(F)(F)C3)cn1 [Example 499]	–	–	–	65.7	> 10000	24.8
Cc1sc(C(=O)Nc2cc(F)cc(NS(C)(=O)=O)c2)cc1-c1ncc(N2CC(C(F)(F)F)C2)cc1F [Example 501]	–	–	–	274	7260	93.3
CS(=O)(=O)Nc1cc(Cl)cc(NC(=O)c2cc(-c3ncc(N4CC(C(F)(F)F)C4)cn3)n(CC(F)F)c2)c1 [Example 508]	–	–	–	108	6460	63.4
CCS(=O)(=O)Nc1cc(Cl)cc(NC(=O)c2cc(-c3ncc(N4CC(F)C4)cn3)c(C)s2)c1 [Example 509]	–	–	–	73.1	5890	17.7
Cc1sc(C(=O)Nc2cc(Cl)cc(NS(C)(=O)=O)c2)cc1-c1ncc(N2CC(F)(F)C2)cn1 [Example 510]	–	–	–	123	> 10000	16.1
Cc1sc(C(=O)Nc2cc(Cl)cc(NS(C)(=O)=O)c2)cc1-c1ncc(N2CC3(C2)CC(F)(F)C3)cc1F [Example 511]	–	–	–	149	7410	37.2
